# How the values were obtained:
# human wildtype CFTR [1] = molecular target: T1, human wildtype CFTR (Homo sapiens, UniProt P13569); test: Whole-cell patch-clamp in CFTR-expressing FRT cells; type: cell-based; settings: 0.5 μM; voltage-independent block
# T1 construct: expressed in transfected cells; host or cells: Fischer rat thyroid (FRT) cells
# Description: D. Patch-Clamp Analysis—Whole cell recordings were performed using FRT cells stably expressing human wildtype CFTR. The pipette solution contained 140 mM N-methyl D-glucamine chloride (NMDG-Cl), 5 mM EGTA, 1 mM MgCl2, 1 mM Tris-ATP, and 10 mM HEPES (pH 7.2), and the bath solution contained 140 mM N-methyl D-glucamine chloride, 1 mM CaCl2, 1 mM MgCl2, 10 mM glucose and 10 mM HEPES (pH 7.4). Experiments were performed at room temperature (22-25° C.). Pipettes were pulled from borosilicate glass and had resistances of 3-5 Mohm after fire polishing. […] After establishing the whole-cell configuration, CFTR was activated by adding forskolin and 3-isobutyl-1-methylxanthine (IBMX). Whole cell currents were elicited by applying hyperpolarizing and depolarizing voltage pulses from a holding potential of 0 mV to potentials between −100 mV and +100 mV in steps of 20 mV. Current was filtered at 5 kHz and digitized and analyzed using an AxoScope 10.0 system and a Digidata® 1440A AC/DC converter (Molecular Devices, Sunnyvale, Calif.). The single channel characteristics of CFTR were analyzed in the cell-attached configuration using fire-polished pipettes with a resistance of 10-15 Mohm. […] Single channel data were digitally filtered at 25 Hz, and analyzed using Clampfit 10.0 software (Axon Instruments).
# [2] = test system: renal cysts in E13.5 embryonic kidneys; test: Embryonic kidney organ culture model of PKD (8-Br-cAMP-induced cysts); type: cell-based, mouse
# Description: E. Embryonic Organ Culture Model of PKD—Mouse embryos were obtained at embryonic day 13.5 (E13.5). Metanephroi were dissected and placed on transparent Falcon […] diameter porous cell culture inserts as described (see, e.g., Sonawane et al., Chem. Biol. 15:718-728 (2008)). To the culture inserts was added DMEM/Ham's F-12 nutrient medium supplemented with 2 mM L-glutamine, 10 mM HEPES, 5 μg/mL insulin, 5 μg/mL transferrin, 2.8 nM selenium, 25 ng/ml prostaglandin E, 32 pg/ml T3, 250 U/ml penicillin and 250 μg/ml streptomycin. Kidneys were maintained in a 37° C. humidified CO2 incubator for up to 8 days. Culture medium containing 100 μM 8-Br-cAMP, with or without CFTR inhibitor, was replaced (in the lower chamber) every 12 h. In some studies CFTR inhibitor was added at 3 days after 8-Br-cAMP to test its efficacy in reversing pre-formed cysts. Kidneys were photographed using a Nikon inverted microscope (Nikon TE 2000-S) equipped with 2× objective lens, 520 nm bandpass filter, and high-resolution CCD camera. Percentage cyst area was calculated as total cyst area divided by total kidney area.
# Kidneys were removed from day 13.5 embryonic mice and maintained in organ culture where they continue to grow. […] Multiple cysts did form and progressively enlarged when the culture medium was supplemented with the CFTR agonist 8-Br-cAMP (see FIG. 5A, left). […] In agreement with the transmission light micrographs of intact kidneys, PPQ-102 reduced cyst size.
# human wildtype CFTR [3] = molecular target: T1, human wildtype CFTR; test: Single-channel cell-attached patch recordings of CFTR; type: cell-based; settings: 1 μM
# Description: D. Patch-Clamp Analysis—Whole cell recordings were performed using FRT cells stably expressing human wildtype CFTR. The pipette solution contained 140 mM N-methyl D-glucamine chloride (NMDG-Cl), 5 mM EGTA, 1 mM MgCl2, 1 mM Tris-ATP, and 10 mM HEPES (pH 7.2), and the bath solution contained 140 mM N-methyl D-glucamine chloride, 1 mM CaCl2, 1 mM MgCl2, 10 mM glucose and 10 mM HEPES (pH 7.4). Experiments were performed at room temperature (22-25° C.). Pipettes were pulled from borosilicate glass and had resistances of 3-5 Mohm after fire polishing. […] After establishing the whole-cell configuration, CFTR was activated by adding forskolin and 3-isobutyl-1-methylxanthine (IBMX). Whole cell currents were elicited by applying hyperpolarizing and depolarizing voltage pulses from a holding potential of 0 mV to potentials between −100 mV and +100 mV in steps of 20 mV. Current was filtered at 5 kHz and digitized and analyzed using an AxoScope 10.0 system and a Digidata® 1440A AC/DC converter (Molecular Devices, Sunnyvale, Calif.). The single channel characteristics of CFTR were analyzed in the cell-attached configuration using fire-polished pipettes with a resistance of 10-15 Mohm. The pipette solution contained (in mM): 140 NMDG-Cl, 1 CaCl2, 1 MgCl2, 5 glucose and 10 HEPES (pH 7.4), and the bath solution contained 140 KCl, 1 CaCl2, 1 MgCl2, 5 glucose and 10 HEPES (pH 7.4). Recordings were performed at room temperature using an Axopatch-200B (Axon Instruments, Foster City, Calif.). The voltage and current data were low-pass filtered at 1 kHz and stored for later analysis. Single channel data were digitally filtered at 25 Hz, and analyzed using Clampfit 10.0 software (Axon Instruments).
# Cell-attached patch recordings were performed to examine single-channel CFTR function.
# cellular cAMP production = test: Cellular cAMP assayed in CHO-K1 cells, basal and forskolin-stimulated; type: cell-based; settings: 10 μM; 20 μM forskolin
# Description: (§1) FIG. 3A: Apical membrane current measured in CFTR-expressing FRT cells in the presence of a transepithelial chloride gradient and with amphotericin B permeabilization of the basolateral membrane. CFTR was activated by CPT-cAMP (chlorophenylthio-cAMP) (100 μM), with increasing concentrations of PPQ-102 added as shown. Left: Original recording. Right: Dose-response (S.E. n=4). FIG. 3B: Measurements as in FIG. 3A, but with apigenin (100 μM) or IBMX (100 μM) as agonists. The data are representative of 3 sets of experiments. FIG. 3C: Short-circuit current measured in T84 (left) and human bronchial airway epithelial cells (right). CFTR was maximally activated by 10 μM forskolin and 100 μM IBMX (‘forsk’). Current in the absence of inhibitor is indicated as ‘control.’ FIG. 3D: Calcium-activated chloride channels were activated by UTP (100 μM) in cystic fibrosis (CFTR-deficient) human bronchial epithelial cells, with PPQ-102 added as indicated. ENaC (epithelial sodium channel) was inhibited by amiloride (10 μM). FIG. 3E: Cellular cAMP assayed in CHO—K1 cells under basal conditions and after addition of 20 μM forskolin (S.E. n=4, differences with PPQ-102, not significant).
# [4] = test system: calcium-activated chloride channels; test: UTP-induced chloride currents in cystic fibrosis (CFTR-deficient) human bronchial epithelial cells; type: cell-based; settings: 10 or 20 μM; UTP 100 μM
# Description: as §1
# human wildtype CFTR [5] = molecular target: T1, human wildtype CFTR; test: Short-circuit (apical membrane) chloride current in CFTR-expressing FRT cells, basolateral membrane permeabilized; type: cell-based
# Description: C. Short-Circuit Current Measurements—Snapwell inserts containing CFTR-expressing FRT cells (stably expressing human wildtype CFTR), T84 cells, or human bronchial epithelial cells were mounted in Ussing chambers. For FRT cells the hemichambers were filled with 5 mL of 75 mM NaCl and 75 mM Na gluconate (apical), and 150 mM NaCl (basolateral) (pH 7.3), and the basolateral membrane was permeabilized with 250 μg/mL amphotericin B. For bronchial epithelial cells and T84 cells, both hemichambers contained a Krebs-bicarbonate solution. Hemichambers were continuously bubbled with air (FRT cells) or 5% CO2 in air (bronchial and T84 cells) and maintained at 37° C. Short-circuit current was recorded continuously using a DVC-1000 voltage clamp (World Precision Instruments, Sarasota, Fla.) using Ag/AgCl electrodes and 3 M KCl agar bridges.
# Short circuit current analysis was performed as described in Example 2. […] Measurements were taken in the presence of a transepithelial chloride gradient and following basolateral membrane permeabilization with amphotericin B so that measured current is a direct, quantitative measure of CFTR chloride conductance.
# T1 sequence (P13569 whole entry): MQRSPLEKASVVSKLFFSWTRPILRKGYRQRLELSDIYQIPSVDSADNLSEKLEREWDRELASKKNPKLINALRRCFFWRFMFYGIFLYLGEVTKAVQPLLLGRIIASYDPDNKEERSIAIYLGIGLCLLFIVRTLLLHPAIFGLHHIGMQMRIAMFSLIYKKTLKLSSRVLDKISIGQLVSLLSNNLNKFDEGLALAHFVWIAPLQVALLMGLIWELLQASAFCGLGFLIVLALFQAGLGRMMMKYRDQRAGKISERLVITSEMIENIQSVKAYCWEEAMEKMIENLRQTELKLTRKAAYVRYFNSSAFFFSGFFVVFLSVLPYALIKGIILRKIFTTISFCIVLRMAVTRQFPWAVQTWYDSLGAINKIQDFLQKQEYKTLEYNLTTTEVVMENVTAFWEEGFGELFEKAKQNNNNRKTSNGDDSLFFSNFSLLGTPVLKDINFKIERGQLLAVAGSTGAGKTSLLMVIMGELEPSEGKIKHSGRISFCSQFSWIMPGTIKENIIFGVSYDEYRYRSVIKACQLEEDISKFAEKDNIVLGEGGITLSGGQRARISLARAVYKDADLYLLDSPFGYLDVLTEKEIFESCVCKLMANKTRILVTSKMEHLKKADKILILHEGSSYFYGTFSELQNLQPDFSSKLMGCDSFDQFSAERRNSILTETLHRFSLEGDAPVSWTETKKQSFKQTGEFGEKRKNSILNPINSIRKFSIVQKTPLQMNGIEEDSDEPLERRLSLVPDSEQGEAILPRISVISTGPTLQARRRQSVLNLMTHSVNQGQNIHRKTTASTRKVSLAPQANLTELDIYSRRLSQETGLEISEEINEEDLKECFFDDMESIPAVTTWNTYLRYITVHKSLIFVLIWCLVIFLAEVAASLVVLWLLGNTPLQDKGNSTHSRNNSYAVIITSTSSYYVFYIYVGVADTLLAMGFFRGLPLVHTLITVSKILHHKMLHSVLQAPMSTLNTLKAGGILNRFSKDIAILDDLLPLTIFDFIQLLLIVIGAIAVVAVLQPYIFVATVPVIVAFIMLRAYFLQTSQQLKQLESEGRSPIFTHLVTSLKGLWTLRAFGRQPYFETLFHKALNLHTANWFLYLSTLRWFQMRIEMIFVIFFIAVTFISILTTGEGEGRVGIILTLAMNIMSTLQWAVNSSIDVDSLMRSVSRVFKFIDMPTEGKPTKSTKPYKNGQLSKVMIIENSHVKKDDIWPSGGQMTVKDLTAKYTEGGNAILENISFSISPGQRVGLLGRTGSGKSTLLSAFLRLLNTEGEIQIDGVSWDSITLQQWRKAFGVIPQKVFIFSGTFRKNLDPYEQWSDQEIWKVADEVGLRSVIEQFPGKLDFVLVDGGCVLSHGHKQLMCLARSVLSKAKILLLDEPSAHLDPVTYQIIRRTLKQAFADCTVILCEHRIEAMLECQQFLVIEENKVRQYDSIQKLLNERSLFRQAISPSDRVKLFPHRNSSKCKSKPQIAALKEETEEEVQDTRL
structure (smiles),measurement,setting,value
"Cc1ccc(C2Nc3ccccc3-n3c(-c4ccccc4)c4c(=O)n(C)c(=O)n(C)c4c32)o1 (racemic) [PPQ-102, 7,9-Dimethyl-11-phenyl-6-(5-methylfuran-2-yl)-5,6-dihydro-pyrimido[4′,5′-3,4]pyrrolo[1,2-a]quinoxaline-8,10-(7H,9H)-dione]",CFTR current-voltage relationship after addition,human wildtype CFTR [1],remained linear
same,reversibility of cyst inhibition,"[2]; 2.5 μM removed after 3 days, 8-Br-cAMP continued",reversible
same,effect on pre-formed cysts,"[2]; 5 μM added at day 3 of 8-Br-cAMP, over 1 and 2 days",reduction in cyst size
same,cysts at 2.5 and 5 μM,"[2]; 2.5 and 5 μM, 4 days in culture, 100 μM 8-Br-cAMP",near complete absence of cysts
same,effect on kidney growth,[2]; in culture medium,did not affect kidney growth
same,Mean channel open time,human wildtype CFTR [3],did not significantly change
same,mean channel closed time,human wildtype CFTR [3],greatly increased
same,Channel open probability (Po),"human wildtype CFTR [3]; control 0.50±0.04, forskolin and IBMX, +80 mV",0.14±0.03
same,unitary conductance,human wildtype CFTR [3]; control 7 pS at +80 mV,did not change
same,effect on basal or forskolin-stimulated cAMP production,cellular cAMP production,no significant effect
same,inhibition of UTP-induced chloride currents,[4],little inhibition
same,reversibility of inhibition,"human wildtype CFTR [5]; 30 min incubation with 2 μM, then 10 min washout",complete restoration of CFTR chloride current
same,IC50,"human wildtype CFTR [5]; CFTR stimulated by CPT-cAMP, transepithelial chloride gradient, amphotericin B, read-out: IC50 for inhibition of CFTR chloride conductance",~90 nM
same,inhibition of CFTR at higher concentrations,"human wildtype CFTR [5]; CPT-cAMP stimulation, higher concentrations",approximately 100%
same,potency with apigenin or IBMX as agonist compared to CPT-cAMP,human wildtype CFTR [5]; apigenin (100 μM) or IBMX (100 μM) as agonists,mildly reduced
